Data reported in patent US8138189B2, “Substituted benzene compounds as modulators of the glucocorticoid receptor” (Hoffman-La Roche Inc., priority 2009, dated 2012).

Target: T1, full length human recombinant glucocorticoid receptor (Homo sapiens, UniProt P04150)
T1 construct: partially purified full length human recombinant glucocorticoid receptor; purchased Panvera/Invitrogen PV4302
T1 sequence (P04150 1-777): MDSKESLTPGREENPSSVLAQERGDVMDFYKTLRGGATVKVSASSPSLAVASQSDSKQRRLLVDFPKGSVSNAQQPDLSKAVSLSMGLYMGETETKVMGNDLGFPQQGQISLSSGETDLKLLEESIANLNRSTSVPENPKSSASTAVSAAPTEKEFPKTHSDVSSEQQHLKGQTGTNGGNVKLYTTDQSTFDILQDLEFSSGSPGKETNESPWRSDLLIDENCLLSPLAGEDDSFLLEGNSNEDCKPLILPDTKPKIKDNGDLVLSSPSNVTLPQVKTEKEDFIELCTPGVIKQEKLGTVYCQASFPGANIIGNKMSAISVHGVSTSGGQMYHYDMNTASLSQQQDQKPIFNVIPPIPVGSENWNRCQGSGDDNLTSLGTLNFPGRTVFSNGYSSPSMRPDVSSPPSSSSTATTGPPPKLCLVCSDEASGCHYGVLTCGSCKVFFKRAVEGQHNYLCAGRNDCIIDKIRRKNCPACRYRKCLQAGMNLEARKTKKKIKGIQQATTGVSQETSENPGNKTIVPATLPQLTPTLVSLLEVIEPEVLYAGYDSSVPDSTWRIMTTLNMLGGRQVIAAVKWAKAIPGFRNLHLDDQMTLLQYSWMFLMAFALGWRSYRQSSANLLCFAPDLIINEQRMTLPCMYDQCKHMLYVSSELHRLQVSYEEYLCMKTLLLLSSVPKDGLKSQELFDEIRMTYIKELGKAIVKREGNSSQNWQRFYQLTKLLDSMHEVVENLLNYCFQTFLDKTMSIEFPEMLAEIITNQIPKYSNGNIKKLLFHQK
Test: Glucocorticoid Receptor Binding Assay (fluorescence polarization competitor assay, Fluormone GS Far Red tracer)
How it was run: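 Partially purified full-length recombinant human GR with a stabilizing coactivator peptide was incubated with Fluormone GS Far Red tracer and serially diluted compound for 3 h at 22 °C in the dark, pH 7.4. Fluorescence polarization was read at 610-660 nm. IC50 came from sigmoidal fitting, and Ki from Cheng-Prusoff.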

Row | Ki | SMILES
1 | 0.6 nM | C[C@H](c1ccc(Oc2ccc(F)c(OCC(=O)O)c2)cc1Cl)[C@@](O)(c1ccc(=O)n(C)c1)C(F)(F)F (stereo in doubt) [Example 162, (5-{3-Chloro-4-[3,3,3-trifluoro-2-hydroxy-1-methyl-2-(1-methyl-6-oxo-1,6-dihydro-pyridin-3-yl)-propyl]-phenoxy}-2-fluoro-phenoxy)-acetic acid]
2 | 40.2 nM | C[C@H](c1ccc(Oc2cc(C(F)(F)F)c(C(=O)O)cn2)cc1Cl)[C@@](O)(c1ccc(=O)n(C)c1)C(F)(F)F (stereo in doubt) [Example 164, 6-{3-Chloro-4-[3,3,3-trifluoro-2-hydroxy-1-methyl-2-(1-methyl-6-oxo-1,6-dihydro-pyridin-3-yl)-propyl]-phenoxy}-4-trifluoromethyl-nicotinic acid]
3 | 18.1 nM | C[C@@H](c1ccc(-c2ccc(C(=O)O)c(Cl)c2)cc1Cl)[C@](O)(c1ccc(=O)n(C)c1)C(F)(F)F (stereo in doubt) [Example 169, 3,3′-Dichloro-4′-[3,3,3-trifluoro-2-hydroxy-1-methyl-2-(1-methyl-6-oxo-1,6-dihydro-pyridin-3-yl)-propyl]-biphenyl-4-carboxylic acid]
4 | 3.8 nM | CCOC(=O)c1cc(-c2ccc([C@H](C)[C@](O)(c3ccc(=O)n(C)c3)C(F)(F)F)c(Cl)c2)ccc1F (stereo in doubt) [Example 172, 3′-Chloro-4-fluoro-4′-[3,3,3-trifluoro-2-hydroxy-1-methyl-2-(1-methyl-6-oxo-1,6-dihydro-pyridin-3-yl)-propyl]-biphenyl-3-carboxylic acid ethyl ester]
5 | 93.5 nM | COC(=O)c1ccc(-c2ccc([C@H](C)[C@](O)(c3ccc(OC)nc3)C(F)(F)F)c(Cl)c2)cc1F (stereo in doubt) [Example 176, 3′-Chloro-3-fluoro-4′-[3,3,3-trifluoro-2-hydroxy-2-(6-methoxy-pyridin-3-yl)-1-methyl-propyl]-biphenyl-4-carboxylic acid methyl ester]
6 | 72.1 nM | COC(=O)c1ccc(-c2ccc([C@H](C)[C@](O)(c3ccc(OC)nc3)C(F)(F)F)c(Cl)c2)cc1Cl (stereo in doubt) [Example 178, 3,3′-Dichloro-4′-[3,3,3-trifluoro-2-hydroxy-2-(6-methoxy-pyridin-3-yl)-1-methyl-propyl]-biphenyl-4-carboxylic acid methyl ester]
7 | 38.4 nM | CCOC(=O)c1cc(-c2ccc([C@H](C)[C@](O)(c3ccc(OC)nc3)C(F)(F)F)c(Cl)c2)ccc1Cl (stereo in doubt) [Example 180, 4,3′-Dichloro-4′-[3,3,3-trifluoro-2-hydroxy-2-(6-methoxy-pyridin-3-yl)-1-methyl-propyl]-biphenyl-3-carboxylic acid ethyl ester]
8 | 10.4 nM | CCn1cc([C@@](O)([C@@H](C)c2ccc(-c3ccc(F)c(C(=O)O)c3)cc2Cl)C(F)(F)F)ccc1=O (stereo in doubt) [Example 184, 3′-Chloro-4′-[2-(1-ethyl-6-oxo-1,6-dihydro-pyridin-3-yl)-3,3,3-trifluoro-2-hydroxy-1-methyl-propyl]-4-fluoro-biphenyl-3-carboxylic acid]
9 | 12.1 nM | CCn1cc([C@@](O)([C@@H](C)c2ccc(-c3ccc(C(=O)OC)c(F)c3)cc2Cl)C(F)(F)F)ccc1=O (stereo in doubt) [Example 185, 3′-Chloro-4′-[2-(1-ethyl-6-oxo-1,6-dihydropyridin-3-yl)-3,3,3-trifluoro-2-hydroxy-1-methyl-propyl]-3-fluoro-biphenyl-4-carboxylic acid methyl ester]
10 | 51.4 nM | C[C@@H](c1cc(Oc2ccc(C(=O)O)c(Cl)c2)ccc1Cl)[C@](O)(c1ccc(=O)n(C)c1)C(F)(F)F (stereo in doubt) [Example 190, 2-Chloro-4-{4-chloro-3-[3,3,3-trifluoro-2-hydroxy-1-methyl-2-(1-methyl-6-oxo-1,6-dihydro-pyridin-3-yl)-propyl]-phenoxy}-benzoic acid]
11 | 10.3 nM | CCOC(=O)c1cc(Oc2ccc(Cl)c([C@H](C)[C@](O)(c3ccc(=O)n(C)c3)C(F)(F)F)c2)ccc1F (stereo in doubt) [Example 193, 5-{4-Chloro-3-[3,3,3-trifluoro-2-hydroxy-1-methyl-2-(1-methyl-6-oxo-1,6-dihydro-pyridin-3-yl)-propyl]-phenoxy}-2-fluoro-benzoic acid ethyl ester]
12 | 32.3 nM | C[C@@H](c1cc(Oc2ccc(F)c(C(=O)O)c2)ccc1Cl)[C@](O)(c1ccc(=O)n(C)c1)C(F)(F)F (stereo in doubt) [Example 194, 5-{4-Chloro-3-[3,3,3-trifluoro-2-hydroxy-1-methyl-2-(1-methyl-6-oxo-1,6-dihydro-pyridin-3-yl)-propyl]-phenoxy}-2-fluoro-benzoic acid]
13 | 2.6 nM | COC(=O)c1ccc(Oc2ccc([C@@H](C)[C@@](O)(c3ccc(=O)n(C)c3)C(F)(F)F)c(Cl)c2Cl)cc1F (stereo in doubt) [Example 199, 4-{2,3-Dichloro-4-[3,3,3-trifluoro-2-hydroxy-1-methyl-2-(1-methyl-6-oxo-1,6-dihydro-pyridin-3-yl)-propyl]-phenoxy}-2-fluoro-benzoic acid methyl ester]

The next lines start with the molecule.

Row | SMILES | Ki
14 | C[C@@H](c1ccc(-c2ccc(Cl)c(C(=O)O)c2)cc1Cl)[C@](O)(c1ccc(=O)n(C)c1)C(F)(F)F (stereo in doubt) [Example 170, 4,3′-Dichloro-4′-[3,3,3-trifluoro-2-hydroxy-1-methyl-2-(1-methyl-6-oxo-1,6-dihydro-pyridin-3-yl)-propyl]-biphenyl-3-carboxylic acid] | 49.7 nM
15 | COC(=O)c1ccc(-c2ccc([C@H](C)[C@](O)(c3ccc(=O)n(C)c3)C(F)(F)F)c(Cl)c2)cc1OC (stereo in doubt) [Example 173, 3′-Chloro-3-methoxy-4′-[3,3,3-trifluoro-2-hydroxy-1-methyl-2-(1-methyl-6-oxo-1,6-dihydro-pyridin-3-yl)-propyl]-biphenyl-4-carboxylic acid methyl ester] | 7.3 nM
16 | COc1cc(-c2ccc([C@H](C)[C@](O)(c3ccc(=O)n(C)c3)C(F)(F)F)c(Cl)c2)ccc1C(=O)O (stereo in doubt) [Example 174, 3′-Chloro-3-methoxy-4′-[3,3,3-trifluoro-2-hydroxy-1-methyl-2-(1-methyl-6-oxo-1,6-dihydro-pyridin-3-yl)-propyl]-biphenyl-4-carboxylic acid] | 97.3 nM
17 | CCn1cc([C@@](O)([C@@H](C)c2ccc(-c3ccc(C(=O)OC)c(OC)c3)cc2Cl)C(F)(F)F)ccc1=O (stereo in doubt) [Example 187, 3′-Chloro-4′-[2-(1-ethyl-6-oxo-1,6-dihydro-pyridin-3-yl)-3,3,3-trifluoro-2-hydroxy-1-methyl-propyl]-3-methoxy-biphenyl-4-carboxylic acid methyl ester] | 7.4 nM
18 | CCn1cc([C@@](O)([C@@H](C)c2ccc(-c3ccc(C(=O)O)c(OC)c3)cc2Cl)C(F)(F)F)ccc1=O (stereo in doubt) [Example 188, 3′-Chloro-4′-[2-(1-ethyl-6-oxo-1,6-dihydro-pyridin-3-yl)-3,3,3-trifluoro-2-hydroxy-1-methyl-propyl]-3-methoxy-biphenyl-4-carboxylic acid] | 98.7 nM
19 | CCOC(=O)c1cc(Oc2ccc(Cl)c([C@H](C)[C@](O)(c3ccc(=O)n(C)c3)C(F)(F)F)c2)ccc1Cl (stereo in doubt) [Example 195, 2-Chloro-5-{4-chloro-3-[3,3,3-trifluoro-2-hydroxy-1-methyl-2-(1-methyl-6-oxo-1,6-dihydro-pyridin-3-yl)-propyl]-phenoxy}-benzoic acid ethyl ester] | 17 nM
20 | C[C@@H](c1cc(Oc2ccc(Cl)c(C(=O)O)c2)ccc1Cl)[C@](O)(c1ccc(=O)n(C)c1)C(F)(F)F (stereo in doubt) [Example 196, 2-Chloro-5-{4-chloro-3-[3,3,3-trifluoro-2-hydroxy-1-methyl-2-(1-methyl-6-oxo-1,6-dihydro-pyridin-3-yl)-propyl]-phenoxy}-benzoic acid] | 45.8 nM
21 | C[C@H](c1ccc(Oc2ccc(C(=O)O)cc2)c(Cl)c1Cl)[C@@](O)(c1ccc(=O)n(C)c1)C(F)(F)F (stereo in doubt) [Example 198, 4-{2,3-Dichloro-4-[3,3,3-trifluoro-2-hydroxy-1-methyl-2-(1-methyl-6-oxo-1,6-dihydro-pyridin-3-yl)-propyl]-phenoxy}-benzoic acid] | 3.4 nM
22 | C[C@H](c1ccc(Oc2ccc(C(=O)O)c(F)c2)c(Cl)c1Cl)[C@@](O)(c1ccc(=O)n(C)c1)C(F)(F)F (stereo in doubt) [Example 200, 4-{2,3-Dichloro-4-[3,3,3-trifluoro-2-hydroxy-1-methyl-2-(1-methyl-6-oxo-1,6-dihydro-pyridin-3-yl)-propyl]-phenoxy}-2-fluoro-benzoic acid] | 2.3 nM
